Measured values reported in PMC7044277 (Nature Communications, 2020).
Where “and” joins values, the source holds several entries; their conditions need not be identical. Identical values can stand only once. Like-named read-outs stand apart in the source and are kept apart here. Blank lines part the entries; values can stand above or below the compound they belong to.

Legend:
[1] = target: DRD2 (D2 long receptor) wild-type (Homo sapiens, UniProt P14416); assay: Radioligand competition binding, [3H]-N-methylspiperone, HEK293T membranes; details: DRD2; [3H]-methylspiperone (0.8-1.0 nM); read-out: Ki
DRD3 wild-type = DRD3 wild-type (Homo sapiens, UniProt P35462); assay: Radioligand competition binding, [3H]-N-methylspiperone
[2] = target: T1, DRD4 (D4.4 variant) wild-type (Homo sapiens, UniProt P21917); assay: as above; details: DRD4; [3H]-methylspiperone (0.8-1.0 nM); read-out: Ki
T1 sequence (P21917 1-419): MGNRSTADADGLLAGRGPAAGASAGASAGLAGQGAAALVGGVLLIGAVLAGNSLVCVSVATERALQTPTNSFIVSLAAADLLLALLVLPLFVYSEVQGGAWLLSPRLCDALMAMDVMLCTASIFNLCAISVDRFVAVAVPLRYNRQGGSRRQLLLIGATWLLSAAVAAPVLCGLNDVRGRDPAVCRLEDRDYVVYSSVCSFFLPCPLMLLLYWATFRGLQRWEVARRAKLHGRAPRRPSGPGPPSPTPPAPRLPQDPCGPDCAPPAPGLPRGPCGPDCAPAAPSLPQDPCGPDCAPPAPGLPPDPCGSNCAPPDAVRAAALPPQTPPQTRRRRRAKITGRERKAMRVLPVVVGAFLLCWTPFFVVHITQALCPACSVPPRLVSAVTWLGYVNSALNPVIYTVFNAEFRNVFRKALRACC

DRD2 (D2 long receptor) [3] = target: T2, DRD2 (D2 long receptor) (Homo sapiens, UniProt P14416); assay: Gαi/o-mediated cAMP inhibition (GloSensor split-luciferase cAMP reporter), HEK293T; type: cell-based; details: for EC50: DRD2, Gαi/o-mediated cAMP inhibition; for Response, Fig_S11b dose-response: individual replicates;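 on all read-outs here: compounds applied 15 min at room temperature, then luciferin plus 400 nM isoproterenol to raise cAMP through endogenous β2-adrenergic receptors, luminescence read 15 min later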
DRD4 (D4.4 variant) [4] = target: T3, DRD4 (D4.4 variant) (Homo sapiens, UniProt P21917); assay: Gαi/o-mediated cAMP inhibition (GloSensor); type: cell-based; details: DRD4; agonist, cAMP inhibition; read-out: EC50 ± SEM
T3 sequence (P21917 1-419): T1 sequence (P21917 1-419)

DRD2 (D2 long receptor) [5] = target: T2, DRD2 (D2 long receptor); assay: β-arrestin2 recruitment (Tango), HTLA cells; type: cell-based; details: for Response, Fig_S11c dose-response: individual replicates; on response, Fig S11c dose-response source data: reference of the scale not given here
DRD3 = DRD3 (Homo sapiens, UniProt P35462); assay: β-arrestin2 recruitment (Tango); type: cell-based; details: DRD3; Tango; read-out: EC50 ± SEM
DRD4 (D4.4 variant) [6] = target: T3, DRD4 (D4.4 variant); assay: β-arrestin2 recruitment (Tango); type: cell-based; details: DRD4; Tango; read-out: EC50 ± SEM
DRD2 F1103.28A = DRD2 F1103.28A (Homo sapiens, UniProt P14416, F110A); type: binding; parameters: expressed in transfected cells; host or cells: HEK293T (ATCC CRL-11268); details: DRD2 F1103.28A
Sequence of DRD2 F1103.28A (P14416 whole entry F110A): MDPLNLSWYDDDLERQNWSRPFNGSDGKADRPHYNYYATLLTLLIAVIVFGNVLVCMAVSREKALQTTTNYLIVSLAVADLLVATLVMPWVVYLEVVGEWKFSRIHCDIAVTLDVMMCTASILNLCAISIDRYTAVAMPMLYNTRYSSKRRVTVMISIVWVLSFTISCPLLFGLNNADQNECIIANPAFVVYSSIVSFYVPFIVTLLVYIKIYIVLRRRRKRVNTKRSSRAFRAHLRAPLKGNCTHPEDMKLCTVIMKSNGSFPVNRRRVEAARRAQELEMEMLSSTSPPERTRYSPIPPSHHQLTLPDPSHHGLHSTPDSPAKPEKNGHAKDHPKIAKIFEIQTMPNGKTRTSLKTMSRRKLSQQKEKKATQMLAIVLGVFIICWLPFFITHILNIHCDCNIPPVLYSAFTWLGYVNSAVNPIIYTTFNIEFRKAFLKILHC

Sequence of DRD3 wild-type (P35462 whole entry): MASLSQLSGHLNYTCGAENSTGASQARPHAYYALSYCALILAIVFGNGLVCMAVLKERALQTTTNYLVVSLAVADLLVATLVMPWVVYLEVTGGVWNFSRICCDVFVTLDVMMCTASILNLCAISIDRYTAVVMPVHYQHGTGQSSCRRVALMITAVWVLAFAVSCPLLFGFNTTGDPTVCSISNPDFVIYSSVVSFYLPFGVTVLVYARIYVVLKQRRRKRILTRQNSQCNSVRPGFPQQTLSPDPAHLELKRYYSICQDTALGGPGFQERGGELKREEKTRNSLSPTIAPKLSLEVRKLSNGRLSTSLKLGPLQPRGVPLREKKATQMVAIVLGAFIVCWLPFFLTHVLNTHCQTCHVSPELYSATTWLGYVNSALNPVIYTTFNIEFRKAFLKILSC
T2 sequence (P14416 whole entry): as the sequence (P14416 whole entry F110A) above, with A110F counted along it
Sequence of DRD2 (D2 long receptor) wild-type (P14416 whole entry): as the sequence (P14416 whole entry F110A) above, with A110F counted along it
Sequence of DRD3 (P35462 whole entry): as the sequence (P35462 whole entry) above

- Ki [1]: > 10 µM
- Ki (DRD3 wild-type; DRD3, [3H]-methylspiperone (0.8-1.0 nM), read-out: Ki): 3.47 µM
- pKi ± SEM (DRD3 wild-type; DRD3 wild-type): 5.46±0.10
- Ki [2]: > 10 µM
- EC50 (DRD2 (D2 long receptor) [3]; agonist, read-out: EC50 ± SEM): > 10 µM
- Response, Fig_S11b dose-response (DRD2 (D2 long receptor) [3]; Log[Drug] -6): -4.6609 and -0.5921
- EC50 (DRD4 (D4.4 variant) [4]): > 10 µM
- EC50 (DRD2 (D2 long receptor) [5]; DRD2, β-arrestin2 recruitment (Tango), read-out: EC50 ± SEM): > 10 µM
- Response, Fig_S11c dose-response (DRD2 (D2 long receptor) [5]; Log[Drug] -6.52): 3.717
- EC50 (DRD3): > 10 µM
- EC50 (DRD4 (D4.4 variant) [6]): > 10 µM
- pKi ± SEM (DRD2 F1103.28A): 5.24±0.17
- Ki (DRD2 F1103.28A; read-out: Ki): 5.75 µM
SMILES: CC(NCC1(O)CCCCC1)c1cc2cccc(O)c2o1.Cl (stereo not shown) [O2LE6]
- Response, Fig_S11b dose-response (DRD2 (D2 long receptor) [3]; Log[Drug] -5): 2.57 and -6.2065 and 9.406 and 22.878 and 21.3481 and -11.9066 and 1.916
- Response, Fig_S11b dose-response (DRD2 (D2 long receptor) [3]; Log[Drug] -5.52): 6.28 and 4.868 and 17.437 and 8.981 and 7.366 and 4.306 and -2.8216 and 10.8339 and 3.867
- Response, Fig_S11b dose-response (DRD2 (D2 long receptor) [3]; Log[Drug] -6.52): -4.5336 and 10.5534 and 15.2708 and -15.8082 and -11.6836
- Response, Fig_S11b dose-response (DRD2 (D2 long receptor) [3]; Log[Drug] -7): 2.459 and 17.8523 and -17.1557 and -9.0384 and -5.1068 and -4.6609 and -7.169
- Response, Fig_S11b dose-response (DRD2 (D2 long receptor) [3]; Log[Drug] -7.52): -18.3605 and -3.0503 and 3.567 and -20.6831 and -11.3334 and 8.381 and -20.49
- Response, Fig_S11b dose-response (DRD2 (D2 long receptor) [3]; Log[Drug] -8): -13.294 and 23.168 and -7.9784 and -20.598 and -10.4409 and -9.4634 and -20.4343
- Response, Fig_S11b dose-response (DRD2 (D2 long receptor) [3]; Log[Drug] -8.52): 0.7703 and -10.5254 and -9.1135 and 3.329 and -12.6933 and -0.7512 and -34.034 and -13.4672 and -11.5164
- Response, Fig_S11b dose-response (DRD2 (D2 long receptor) [3]; Log[Drug] -9): 2.182 and 8.19 and 4.563 and -3.0886 and 6.152 and -13.6902 and -0.3134
- Response, Fig_S11b dose-response (DRD2 (D2 long receptor) [3]; Log[Drug] -9.52): -7.1755 and -21.4059 and -24.6779 and -18.9406 and -5.1068 and 6.486
- Response, Fig_S11b dose-response (DRD2 (D2 long receptor) [3]; Log[Drug] -10): -19.2464 and 38.0628 and -6.9263 and -30.0753 and -2.0262 and 6.261 and -22.9424 and -9.1198 and -15.8639
- Response, Fig_S11b dose-response (DRD2 (D2 long receptor) [3]; Log[Drug] -10.52): -15.9241 and -8.3937 and 23.898 and 3.978 and -13.6344
- Response, Fig_S11b dose-response (DRD2 (D2 long receptor) [3]; Log[Drug] -11): -21.7935 and 4.314 and -22.2642 and -20.2156 and 2.7337 and -9.1755
- Response, Fig_S11b dose-response (DRD2 (D2 long receptor) [3]; Log[Drug] -11.52): 5.117 and 27.9022 and 12.3983 and -0.5921 and -2.4314 and -6.9461
- Response, Fig_S11b dose-response (DRD2 (D2 long receptor) [3]; Log[Drug] -12): 6.64 and -0.2818 and -18.9406 and 16.0358 and 13.8258 and -18.8737 and -20.713 and -0.5921
- response, Fig_S11c dose-response source data (DRD2 (D2 long receptor) [5]; Fig_S11c, Log[Drug] -5, replicate values): 16.7808 and 14.8237 and 14.215 and 18.5342 and 14.2817 and 15.7604 and 11.4227 and 17.086 and 21.2736
- Response, Fig_S11c dose-response (DRD2 (D2 long receptor) [5]; Log[Drug] -7): 2.811 and 3.15 and 4.053 and 3 and 2.812 and 3.498 and 5.616 and 3.218 and 2.5633
- Response, Fig_S11c dose-response (DRD2 (D2 long receptor) [5]; Log[Drug] -7.52): 2.895 and 3.102 and 3.119 and 2.48 and 2.571 and 2.809 and 3.052 and 1.009 and 2.448
- Response, Fig_S11c dose-response (DRD2 (D2 long receptor) [5]; Log[Drug] -8): 2.815 and 2.652 and 3.1462 and 2.523 and 2.762 and 2.623 and 2.494 and 3.6148 and 1.539
- Response, Fig_S11c dose-response (DRD2 (D2 long receptor) [5]; Log[Drug] -8.52): 3.296 and 2.4132 and 3.209 and 2.229 and 3.453 and 2.266 and 3.066 and 1.184 and 1.383
- Response, Fig_S11c dose-response (DRD2 (D2 long receptor) [5]; Log[Drug] -9): 2.8445 and 2.312 and 2.494 and 3.046 and 2.174 and 2.343 and 1.927 and 6.732 and 6.534
- Response, Fig_S11c dose-response (DRD2 (D2 long receptor) [5]; Log[Drug] -9.52): 2.362 and 2.4976 and 2.923 and 2.359 and 2.154 and 2.345 and 3.43 and 1.364 and 3.781
- Response, Fig_S11c dose-response (DRD2 (D2 long receptor) [5]; Log[Drug] -10): 3.645 and 2.627 and 2.787 and 2.06 and 2.1828 and 2.292 and 2.6786 and 2.1344 and 1.378
- Response, Fig_S11c dose-response (DRD2 (D2 long receptor) [5]; Log[Drug] -10.52): 2.259 and 2.232 and 2.66 and 2.1982 and 2.238 and 2.169 and 4.722 and 1.378 and 2.323
- Response, Fig_S11c dose-response (DRD2 (D2 long receptor) [5]; Log[Drug] -11): 2.37 and 2.502 and 2.312 and 2.1828 (2×) and 2.084 and 1.9407 and 3.057 and 2.849
- Response, Fig_S11c dose-response (DRD2 (D2 long receptor) [5]; Log[Drug] -11.52): 2.185 and 2.208 and 2.688 and 2.5566 and 2.233 and 3.071 and 1.779 and 1.392 and 2.508
- Response, Fig_S11c dose-response (DRD2 (D2 long receptor) [5]; Log[Drug] -12): 2.133 and 2.211 and 2.421 and 5.046 and 2.173 and 2.317 and 0.6771 and 1.599 and 1.023

- Ki [1]: 3.8 µM
- Ki (DRD3 wild-type; DRD3 wild-type, read-out: pKi ± SEM (converted)): 0.214 µM
- Ki [2]: > 10 µM
- EC50 (DRD2 (D2 long receptor) [3]; antagonist, read-out: EC50 ± SEM (antagonist)): 3.55 ± 0.295 µM
SMILES: CCCCN(C)C(C)C(=O)Nc1cc([N+](=O)[O-])ccc1OC (stereo not shown) [O9LE9]
